Measured values reported in BindingDB's records for doi:10.1016/s0960-894x(00)00610-7 (Institute of Molecular and Cell Biology, 2001).

Molecular target: T1, Chymotrypsin-C (Homo sapiens, UniProt Q99895)
T1 sequence (Q99895 whole entry): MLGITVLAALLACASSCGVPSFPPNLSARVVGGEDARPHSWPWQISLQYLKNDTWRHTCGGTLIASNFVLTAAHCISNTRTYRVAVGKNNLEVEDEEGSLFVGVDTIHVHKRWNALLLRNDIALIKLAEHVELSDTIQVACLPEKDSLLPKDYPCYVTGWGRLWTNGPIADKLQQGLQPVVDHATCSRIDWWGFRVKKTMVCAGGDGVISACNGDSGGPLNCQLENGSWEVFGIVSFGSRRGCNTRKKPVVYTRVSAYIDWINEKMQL
Assay: ChEBML_197813
From the text: Inhibitory activity against Serine protease chymotrypsin

C=C(c1cccc(OC(=O)N[C@@H](CC(C)C)C(=O)N(CCN(Cc2ccc(C(=O)OC)cc2)Cc2ccc(C(=O)OC)cc2)Cc2ccc(Cl)cc2)c1)c1sc(=S)n(CC(=O)OCC)c1O [4-{[(2-{(4-Chloro-benzyl)-[2-(3-{1-[3-ethoxycarbonylmethyl-4-oxo-2-thioxo-thiazolidin-(5Z)-ylidene]-ethyl}-phenoxycarbonylamino)-4-methyl-pentanoyl]-amino}-ethyl)-amino-methyl]di-benzoic acid methyl ester]
IC50: 210 µM
